Consider 52 compounds from ChEMBL document CHEMBL1156829 (Proc Natl Acad Sci U S A, 2008).

In data set [1] the test system is Plasmodium falciparum. Description: NOVARTIS: Inhibition of Plasmodium falciparum 3D7 (drug-susceptible) proliferation in erythrocyte-based infection assay. The class given is functional, organism-based. The conditions noted are these: Plasmodium falciparum, 3D7.
Data set [2] is described as follows: NOVARTIS: Cytotoxicity against human hepatocellular carcinoma cell line (Huh7). The class given is toxicity, cell-based, Huh-7. The note with it: Huh7 cells (hepatocellular carcinoma cell line).
In data set [3] the test system is Plasmodium falciparum. Description: NOVARTIS: Inhibition of Plasmodium falciparum W2 (drug-resistant) proliferation in erythrocyte-based infection assay. The class given is functional, organism-based. The note with it: Plasmodium falciparum, W2; read-out: EC50.

pEC50: −log10 of the molar value.

As usually defined, the pEC50 is the negative decadic logarithm of the EC50, by convention in mol/L. In general, CC50 refers to the concentration at which the toxic effect on the cells reaches its halfway point. For the compound `CC(=O)NCCc1ccc(O)cc1`, the values for the pEC50 in data set [1] and in data set [3] were less than 5.78 and greater than 7.86, respectively. The compound also registered a CC50 in data set [2] greater than 10 µM.
For the compound `CCSC(Cl)=C(NC(=O)c1ccccc1)[P+](c1ccccc1)(c1ccccc1)c1ccccc1.[O-][Cl+3]([O-])([O-])[O-]`, the figures for the pEC50 in data set [1] and in data set [3] were 6.91 and 7.34, respectively. The compound also registered a CC50 in data set [2] of 32.2 µM.
The like results for `CCC1CN2CCc3cc(OC)c(OC)cc3C2CC1CC1NCCc2cc(OC)c(OC)cc21` (stereo unspecified) were, in that order, 7.45, 7.44 and 23.7 µM.
For `CCCCCCc1cc(O)c2c(c1)OC(C)(C)C1=C2CCN(C)C1` the same measures were 7.32, 7.50 and 20.6 µM.
Regarding `CCN(CC)CCCC(C)N=c1cc(C=Cc2ccccc2Cl)[nH]c2cc(Cl)ccc12` (stereo unspecified), the pEC50 was 7.29 in data set [1] and 7.59 in data set [3]. In addition, in data set [2], the CC50 amounted to 18.8 µM.
The like results for `CC(C)C(=O)NC(Nc1ccc([N+](=O)[O-])cc1)C(Cl)(Cl)Cl` (stereo unspecified) were, in that order, 6.71, 6.98 and 68.3 µM.
Consider `CC(=O)O[C@H]1C(=O)[C@@]2(C)C([C@H](OC(=O)c3ccccc3)[C@]3(O)C[C@H](OC(=O)[C@@H](O)[C@@H](NC(=O)c4ccccc4)c4ccccc4)C(C)=C1C3(C)C)[C@]1(OC(C)=O)CO[C@@H]1C[C@@H]2O` (stereo partly specified), for which the pEC50 is 6.18 in data set [1] and 6.82 in data set [3]. This compound also returned a CC50 in data set [2] greater than 100 µM.
The like results for `Cc1ncc([N+](=O)[O-])n1CCOC(=O)NC(Nc1ccc(Br)cc1)C(Cl)(Cl)Cl` (stereo unspecified) were, in that order, 6.64, 6.82 and greater than 100 µM.
The like results for `COc1ccc(C=C2SC(=N)N(c3ccccc3OC)C2=O)cc1` were, in that order, 6.79, 7.06 and 62.9 µM.
The like results for `COC(=O)C1=C(C)NC2=C(C(=O)CC(c3ccc(Cl)cc3)C2)C1c1ccccc1` (stereo unspecified) were, in that order, 6.47, 6.82 and greater than 100 µM.
Consider `Cn1c(C(=O)c2cccc3ccccc23)nc2ccccc21`, for which the results for the pEC50 in data set [1] and in data set [3] were 8.16 and 7.49, respectively. This compound had a CC50 in data set [2] of 21.5 µM.
For `Cc1cc(Cl)c(S(=O)(=O)N2CCSCC2)cc1OCC(=O)NC1CCCCC1` the same measures were 6.73, 6.82 and greater than 100 µM.
For `C=CCNC(=S)N1CCc2c([nH]c3ccccc23)C1C(F)(F)F` (stereo unspecified) the same measures were 6.68, 6.97 and 70.7 µM.
With `O=C(NCCCCNc1ccnc2cc(Cl)ccc12)c1cccc(C(F)(F)F)c1`, the pEC50 was 6.77 in data set [1] and greater than 7.86 in data set [3]. The compound further had a CC50 in data set [2] greater than 10 µM.
On to `O=C1C(N2CCCCC2)=C(N2CCCCC2)C(=O)c2ccccc21`, for which the negative-log EC50 (pEC50) in data set [1] was 6.86; in data set [3], 7.47. Also, the CC50 in data set [2] is 24.9 µM.
For `CCN1C(=O)N(CC)C(NNC(N)=S)C1NNC(N)=S` (stereo unspecified) the same measures were 6.91, 6.82 and greater than 100 µM.
In the case of `CSc1nc2nc(C)c(Cc3cccc(F)c3)c(C)n2n1`, the pEC50 is 6.53 in data set [1] and 6.82 in data set [3]. The compound further had a CC50 in data set [2] greater than 100 µM.
`Cc1c(C(=O)NCCN2CCCC2)cnn1-c1ncc2c(n1)-c1ccccc1SC2`: the pEC50 in data set [1] was 6.28; in data set [3] it was greater than 7.84. Further, the CC50 in data set [2] is greater than 10 µM.
The like results for `CCc1cccc(NC(=O)N2CCN(C(=O)c3nc(-c4ccccc4)nc(C)c3C(=O)OC(C)C)CC2C)c1` (stereo unspecified) were, in that order, 6.14, greater than 7.85 and greater than 10 µM.
On to `C[n+]1c(/C=C\c2ccc(F)cc2)ccc2ccccc21`, for which the figures for the pEC50 in data set [1] and in data set [3] were 6.56 and 7.85, respectively. In data set [2], this compound registered a CC50 greater than 10 µM.
`Fc1ccc(C2(CCCSc3nnc4c(n3)[nH]c3ccccc34)OCCO2)cc1`: the pEC50 is 6.40 in data set [1] and 6.85 in data set [3]. Also, in data set [2], the CC50 was greater than 100 µM.
Take `CC(c1nc2ccc(Cl)cc2c(=O)n1C)N1CCN(S(=O)(=O)c2cccc3ccccc23)CC1` (stereo unspecified): the figures for the negative-log EC50 (pEC50) in data set [1] and in data set [3] were 6.83 and 6.85, respectively. Moreover, the CC50 in data set [2] is greater than 100 µM.
For the compound `O=C1N(Cc2cc3ccccc3s2)CC2CN(Cc3ccc(F)c(F)c3)CCN12` (stereo unspecified), the pEC50 in data set [1] was 6.62; in data set [3], greater than 7.86. In data set [2], the CC50 was greater than 10 µM.
The like results for `COc1ccccc1N1CCN(Cc2cc(C)c(C)cc2O)CC1` were, in that order, 6.42, 7.09 and 58 µM.
For `C=C[C@H]1CN2CC[C@H]1C[C@H]2[C@H](OC(=O)c1cccc([N+](=O)[O-])c1)c1ccnc2ccccc12` the same measures were 6.40, greater than 7.84 and greater than 10 µM.
For `COc1ccc(-c2c[n+](CC(=O)c3ccc(Cl)cc3)c3n2CCC3)cc1` the same measures were 6.19, 6.82 and greater than 100 µM.
In the case of `CN(C)c1ccc(NC(=O)C2C3C=CC(O3)C2C(=O)O)cc1` (stereo unspecified), the values for the pEC50 in data set [1] and in data set [3] were 6.92 and 7.32, respectively. The compound also came in with a CC50 in data set [2] of 32.8 µM.
For `O=S(=O)(c1ccc(Cl)cc1)N1CCN(C(=S)NCC2CCCO2)CC1` (stereo unspecified), the pEC50 in data set [1] was 6.19; in data set [3], 6.83. In data set [2], this compound had a CC50 greater than 100 µM.
`COCC(=O)Oc1ccccc1-c1nc2cc(C)ccn2c1NC(C)(C)CC(C)(C)C`: the pEC50 in data set [1] was 6.10; in data set [3] it was greater than 8.04. The CC50 in data set [2] was greater than 6.2 µM.
Regarding `CCOC(=O)C1=C(N)N(c2cccc([N+](=O)[O-])c2)C2=C(C(=O)CC(C)(C)C2)C1c1ccc(Br)cc1` (stereo unspecified), the pEC50 in data set [1] is 5.90; in data set [3], 6.82. The CC50 in data set [2] is greater than 100 µM.
For `O=C1CC(C(=O)N2CCC(c3nc(-c4cccnc4)ncc3-c3ccccc3)CC2)c2ccccc21` (stereo unspecified) the same measures were 6.34, 6.82 and greater than 100 µM.
The like results for `CC(CNC(=O)c1cn(C2CCCCC2)cc(C(=O)NC(C)(C)C)c1=O)c1ccccc1` (stereo unspecified) were, in that order, 6.76, greater than 7.82 and greater than 10 µM.
Consider `CCOC(=O)C1=C(CC)NC2=C(C(=O)CC(C)(C)C2)C1c1ccccc1F` (stereo unspecified), for which the pEC50 in data set [1] was 6.34; in data set [3], 6.82. The compound further had a CC50 in data set [2] greater than 100 µM.
The like results for `c1cc(-c2cccc3cccnc23)nc(N2CCN(CCN3CCCC3)CC2)c1` were, in that order, 7.23, 6.99 and 70.1 µM.
For `COc1cc2nc(NCc3cccnc3)n3nc(-c4ccccc4)nc3c2cc1OC`, the pEC50 in data set [1] is 6.74; in data set [3], 6.83. For the same compound, in data set [2], the CC50 was greater than 100 µM.
For `COC(=O)C1=C(C)N/C(=C\c2cc(C)n(-c3cc(C)ccc3C)c2C)C1=O` the same measures were 7.90, 7.82 and greater than 10 µM.
For `CC(C)CN1C(=O)c2ccccc2C(C(=O)Nc2cc(F)ccc2F)C1c1cccs1` (stereo unspecified) the same measures were 6.58, 6.82 and greater than 100 µM.
For `COC(=O)c1c(-c2c(Cl)cccc2Cl)noc1NC(=O)NN1CCCCC1` the same measures were 6.56, 6.82 and greater than 100 µM.
Take `O=C(CN1CCN(C(=O)c2ccccc2)CC1)Nc1ccc(-c2nc3cc(NC(=O)CN4CCN(C(=O)c5ccccc5)CC4)ccc3o2)cc1`: the pEC50 in data set [1] is 6.63; in data set [3], 6.84. The compound further displayed a CC50 in data set [2] greater than 100 µM.
On to `O=C(C(Cc1ccc(O)cc1)c1ccccc1)N1CCC(n2c(Cc3ccc(F)cc3)nc3cccnc32)CC1` (stereo unspecified), for which the pEC50 was 6.45 in data set [1] and 6.86 in data set [3]. In data set [2], this compound showed a CC50 greater than 100 µM.
For `C=CC1CN2CCC1CC2[C@@H](OC(=O)c1ccc(C(C)(C)C)cc1)c1ccnc2ccc(OC)cc12` (stereo partly specified), the pEC50 is 7.59 in data set [1] and 6.99 in data set [3]. The CC50 in data set [2] worked out at 72.5 µM.
The like results for `O=C1N(Cc2cc3ccccc3s2)CC2CN(Cc3ccsc3)CCN12` (stereo unspecified) were, in that order, 6.97, 6.82 and greater than 100 µM.
Take `COc1cc2c(-c3cc(Br)ccc3O)nc3c(c(Cc4ccccc4)nn3-c3ccccc3)c2cc1OC`: the pEC50 in data set [1] and in data set [3] was 6.84 in each case. Moreover, the CC50 in data set [2] was greater than 100 µM.
In the case of `COc1ccc(C=Cc2ccc3ccccc3[n+]2C)cc1OC`, the pEC50 in data set [1] is 6.36; in data set [3], 6.86. In data set [2], this compound returned a CC50 greater than 100 µM.
The like results for `Cc1ccc(-n2c(-c3ccccc3)cc(C=NNC(=O)c3cccc(O)c3)c2-c2ccccc2)cc1` were, in that order, 6.82, 6.86 and greater than 100 µM.
For `Cc1cc(Cl)c(S(=O)(=O)N2CCCC2)cc1OCC(=O)NC1CCCCC1`, the pEC50 in data set [1] was 7.02; in data set [3], 6.85. This compound also returned a CC50 in data set [2] greater than 100 µM.
In the case of `CSc1cccc(NC(=O)C2C3C=CC4(O3)C2C(=O)N(C2CC2)C4C(=O)NC2CCCCC2)c1` (stereo unspecified), the pEC50 in data set [1] was 5.76; in data set [3], greater than 7.84. The compound further returned a CC50 in data set [2] greater than 10 µM.
As to `CCN(CC)CCN1C(=O)c2ccccc2NC1c1ccc(Br)cc1` (stereo unspecified), the pEC50 in data set [1] is 6.66; in data set [3] it was 7.17. The compound also gave a CC50 in data set [2] of 47.8 µM.
Take `CCOC(=O)c1cnc2c3c(ccc2c1O)CCCC3`: the pEC50 in data set [1] was 6.88; in data set [3] it was 6.86. This compound had a CC50 in data set [2] greater than 100 µM.
As for `OC(CNCc1ccccc1)Cn1c2ccc(Br)cc2c2cc(Br)ccc21` (stereo unspecified), the pEC50 in data set [1] is 6.51; in data set [3], 7.87. It took 9.3 µM to reach half-maximal cytotoxicity in data set [2] (CC50).
The like results for `CCc1nc2nc(C)cc(Nc3ccc(C)c(F)c3)n2n1` were, in that order, 6.60, 6.85 and greater than 100 µM.
With `O=C(CCc1ccccc1)NCCCCNc1ccnc2cc(Cl)ccc12`, the pEC50 in data set [1] is 6.85; in data set [3] it was greater than 7.86. In data set [2], this compound yielded a CC50 greater than 10 µM.
